Results on four compounds are retold here after patent US20040132715A1, “Method to treat allergic rhinitis” (priority 2002, published 2004).

Several values for one entry are separate records, joined by “and”; a condition that tells them apart may be missing. Equal values may be shown once.

Holding throughout (format): in vivo
Assay [1] has as its system Zymosan Induced Peritonitis in Mice. The assay can be described thus: Zymosan induced peritonitis in mice (PMN influx into peritoneal cavity). To be noted: for effect on PMN influx (in words): Imetit, thioperamide 5 mg/kg, s.c.; for PMN (10^6 per mouse), mean: group mean; for PMN (10^6 per mouse), mean / PMN (10^6 per mouse), single mice: s.c. at -15 min and +2 h (Compound 1 10 mg/kg; Imetit, Thioperamide 5 mg/kg), 1 mg zymosan A i.p.; for PMN (10^6 per mouse), single mice: lavage at 4 h. Here is the method:
This is commonly used to induce peritonitis in mice and appears to act in a mast cell dependent manner. Male out-bred Swiss albino mice were purchased from Bantin and Kingman (T.O. strain; Hull, Humberside) and maintained on a standard chow pellet diet with tap water ad libitum and a 12:00 h light /dark cycle. All animals were housed for at least 3 days prior to experimentation to allow body weight to reach ˜30 g on the day of the experiment. […] Animals were briefly (30-60 s) anesthetized with halothane for all s.c. and i.p. treatments described below. Drugs were stored at room temperature, in the dark. On the day of the experiment, drugs were dissolved in sterile PBS as depicted below, and generously vortexed. […] Time −15 min: Compounds or PBS administered s.c. at the reported doses. Time 0: At time 0, mice received 1 mg zymosan A (Sigma) i.p. Time +2 h: Compounds or PBS administered s.c. at the reported doses. […] Peritoneal cavities were washed 4 h later with 3 mL of PBS containing 3 mM EDTA, and the number of migrated leukocytes determined, by taking an aliquot (100 μL) of the lavage fluid and diluting 1:10 in Turk's solution (0.01% crystal violet in 3% acetic acid). The samples were then vortexed and 10 μL of the stained cell solution were placed in a Neubauer haemocytometer. Differential cell counts were performed using a light microscope (Olympus B061). […] Statistical differences were determined by Anova followed by Bonferroni's post-hoc test.

Assay [2] has as its system Sodium Urate Crystal Induced Peritonitis in Mice. As to the kind of experiment: Sodium urate crystal (MSU) induced peritonitis in mice (PMN migration). The procedure:
Such crystals are the primary cause of the inflammation associated with acute gouty arthritis.
Male out-bred Swiss albino mice were purchased from Bantin and Kingman (T.O. strain; Hull, Humberside) and maintained on a standard chow pellet diet with tap water ad libitum and a 12:00 h light/dark cycle. All animals were housed for at least 3 days prior to experimentation to allow body weight to reach ˜30 g on the day of the experiment. For this particular experiment body weight was 30±1 (n=32).
Compound 1 was stored at room temperature in the dark. […] Mice received 3 mg mono sodium urate crystals (MSU) given intra-peritoneally at time 0.
Time +6 h: Peritoneal cavities were washed 6 h later with 3 mL of PBS containing 3 mM EDTA, and the number of migrated leukocytes determined, by taking an aliquot (100 μL) of the lavage fluid and diluting 1:10 in Turk's solution (0.01% crystal violet in 3% acetic acid). The samples were then vortexed and 10 μL of the stained cell solution were placed in a Neubauer hematocytometer. Differential cell counts were performed using a light microscope (Olympus B061). In view of their chromatic characteristics and their nucleus and cytoplasm appearance, cells polymorphonuclear cells (PMN, >95% neutrophils) could be easily differentiated
Experimental groups are described below:
Data are shown for single mice, and also shown as mean ±SE of (n) mice per group. Statistical differences were determined by Student's t test. A P value <0.05 was taken as significant.
PMN influx into the peritoneal cavity was measured at the 6 h time-point after collection of the lavage fluids and specific staining as described in the experimental section.

Assay [3] relates to Croton Oil Induced Topical Inflammation in Mice. The assay can be described thus: Croton oil induced topical inflammation in mice (ear swelling). To be noted: for Difference in ear Thickness, Mean: group mean, s.c. x3 (Compound 1 10 mg/kg; Indomethacin 30 mg/kg), 6 h after croton oil.

As for `CN1CCN(C(=O)c2cc3cc(Cl)ccc3[nH]2)CC1` [Compound 1, (5-Chloro-1H-indol-2-yl)-(4-methyl-piperazin-1-yl)-methanone], the “effect on PMN influx (in words)” value in assay [1] (Compound 1 10 mg/kg, 4 h) is listed as “significantly reduced PMN influx”. Besides, the “PMN (10^6 per mouse), mean” value is recorded as 6.6 10^6 per mouse in assay [1] (4 h); 6.8 10^6 per mouse in assay [2] (group mean, 10 mg/kg s.c. at -15 min, +2 h and +4 h, 3 mg MSU crystals i.p., 6 h time-point). The “PMN (10^6 per mouse), single mice” value is 9.9 10^6 per mouse and 3.6 10^6 per mouse and 9.3 10^6 per mouse and 3.3 10^6 per mouse and 8.1 10^6 per mouse and 5.1 10^6 per mouse and 6.9 10^6 per mouse in assay [1]; 7.8 10^6 per mouse (2×) and 4.5 10^6 per mouse and 3.0 10^6 per mouse and 8.1 10^6 per mouse and 9.3 10^6 per mouse and 6.6 10^6 per mouse and 7.2 10^6 per mouse in assay [2] (single mice, 10 mg/kg s.c. at -15 min, +2 h and +4 h, 3 mg MSU crystals i.p., 6 h time-point, 10 mg/kg). The “effect on PMN migration (in words)” value in assay [2] (10 mg/kg s.c., 6 h) is “significantly reduced PMN migration”. The “effect on ear swelling (in words)” value in assay [3] (10 mg/kg x 3 s.c.) was “significantly reduced the swelling”. For the same compound, the inhibition at 10 mg/kg in assay [3] (Mus musculus, sc, 6 h, read-out: % inhib (ear swelling)) turned out to be 28%. For the same compound, the “Difference in ear Thickness, Mean” value in assay [3] worked out at 12.0 × 0.01 mm. In addition, the “Difference in ear Thickness, single mice” value in assay [3] (single mice, s.c. 30 min before, 2 and 4 h after croton oil (Compound 1 10 mg/kg; Indomethacin 30 mg/kg), measured 6 h after croton oil) was 12 × 0.01 mm and 10 × 0.01 mm and 13 × 0.01 mm and 9 × 0.01 mm and 16 × 0.01 mm.
As for `N=C(N)SCCc1cnc[nH]1` [Imetit], the “effect on PMN influx (in words)” value in assay [1] (Compound 1 10 mg/kg, 4 h) was “inactive”. The “PMN (10^6 per mouse), mean” value in assay [1] (4 h) is recorded as 17.3 10^6 per mouse.
With `COc1ccc2c(c1)c(CC(=O)O)c(C)n2C(=O)c1ccc(Cl)cc1` [Indomethacin, reference compound], the “Difference in ear Thickness, Mean” value in assay [3] was 10.0 × 0.01 mm.
With `S=C(NC1CCCCC1)N1CCC(c2cnc[nH]2)CC1` [Thioperamide], the “effect on PMN influx (in words)” value in assay [1] (Compound 1 10 mg/kg, 4 h) is “significant inhibitory effect”. Also, the “PMN (10^6 per mouse), mean” value in assay [1] (4 h) was 9.3 10^6 per mouse. The “PMN (10^6 per mouse), single mice” value in assay [1] is 9.3 10^6 per mouse and 16.5 10^6 per mouse and 7.2 10^6 per mouse and 10.8 10^6 per mouse and 5.4 10^6 per mouse and 9.9 10^6 per mouse and 6.9 10^6 per mouse and 8.1 10^6 per mouse. The “% inhib (PMN influx)” value in assay [1] (vs PBS group, Compound 1 10 mg/kg, Thioperamide 5 mg/kg s.c., 4 h) is on record as “(−46%)”.
